Test results reported in ChEMBL document CHEMBL4376834, “Discovery of 4H-Chromen-4-one Derivatives as a New Class of Selective Rho Kinase (ROCK) Inhibitors, which Showed Potent Activity in ex Vivo Diabetic Retinopathy Models” (J Med Chem, 2019).

How the values were obtained:
[1] = target: Serine/threonine-protein kinase 32A (Homo sapiens, UniProt Q8WU08); assay: Inhibition of recombinant human full length STK32A using casein as substrate incubated for 40 mins in presence of [gamma33P]ATP by radiometric scintillation counting analysis
Serine/threonine-protein kinase 32A, sequence (Q8WU08 whole entry): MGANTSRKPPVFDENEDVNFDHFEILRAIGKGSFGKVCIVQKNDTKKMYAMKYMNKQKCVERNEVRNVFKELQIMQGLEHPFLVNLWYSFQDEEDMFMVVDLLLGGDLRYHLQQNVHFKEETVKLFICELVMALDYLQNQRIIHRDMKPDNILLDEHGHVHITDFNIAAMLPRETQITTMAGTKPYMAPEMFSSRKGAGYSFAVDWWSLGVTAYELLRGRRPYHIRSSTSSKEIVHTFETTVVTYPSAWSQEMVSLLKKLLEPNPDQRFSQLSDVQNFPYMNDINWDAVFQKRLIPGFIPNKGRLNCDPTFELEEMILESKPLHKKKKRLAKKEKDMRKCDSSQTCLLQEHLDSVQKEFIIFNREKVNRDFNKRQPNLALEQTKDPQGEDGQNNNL

[2] = target: G protein-coupled receptor kinase 5 (Homo sapiens, UniProt P34947); assay: Inhibition of recombinant full length human GRK5 using casein as substrate after 40 mins in presence of [gamma-33ATP] by radiometric scintillation counting analysis
G protein-coupled receptor kinase 5, sequence (P34947 whole entry): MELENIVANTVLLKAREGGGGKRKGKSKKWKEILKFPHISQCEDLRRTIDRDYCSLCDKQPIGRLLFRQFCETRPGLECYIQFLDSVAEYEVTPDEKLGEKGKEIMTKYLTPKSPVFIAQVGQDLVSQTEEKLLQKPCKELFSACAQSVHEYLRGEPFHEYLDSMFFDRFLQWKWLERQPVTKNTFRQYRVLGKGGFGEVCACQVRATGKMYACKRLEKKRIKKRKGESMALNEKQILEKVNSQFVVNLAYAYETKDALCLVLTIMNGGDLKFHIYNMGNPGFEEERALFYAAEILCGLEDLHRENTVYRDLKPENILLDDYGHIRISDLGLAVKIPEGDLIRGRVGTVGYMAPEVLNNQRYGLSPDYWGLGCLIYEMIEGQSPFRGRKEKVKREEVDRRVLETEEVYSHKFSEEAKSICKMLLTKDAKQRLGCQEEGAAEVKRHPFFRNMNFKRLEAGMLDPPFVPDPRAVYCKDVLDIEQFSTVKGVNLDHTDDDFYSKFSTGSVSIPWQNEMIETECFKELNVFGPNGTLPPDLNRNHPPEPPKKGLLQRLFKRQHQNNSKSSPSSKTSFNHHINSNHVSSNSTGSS

[3] = target: Tyrosine-protein kinase Yes (Homo sapiens, UniProt P07947); assay: Inhibition of recombinant full-length human Yes using poly(Glu, Tyr) 4:1 as substrate incubated for 40 mins in presence of [gamma33P]ATP by radiometric scintillation counting analysis
Tyrosine-protein kinase Yes, sequence (P07947 whole entry): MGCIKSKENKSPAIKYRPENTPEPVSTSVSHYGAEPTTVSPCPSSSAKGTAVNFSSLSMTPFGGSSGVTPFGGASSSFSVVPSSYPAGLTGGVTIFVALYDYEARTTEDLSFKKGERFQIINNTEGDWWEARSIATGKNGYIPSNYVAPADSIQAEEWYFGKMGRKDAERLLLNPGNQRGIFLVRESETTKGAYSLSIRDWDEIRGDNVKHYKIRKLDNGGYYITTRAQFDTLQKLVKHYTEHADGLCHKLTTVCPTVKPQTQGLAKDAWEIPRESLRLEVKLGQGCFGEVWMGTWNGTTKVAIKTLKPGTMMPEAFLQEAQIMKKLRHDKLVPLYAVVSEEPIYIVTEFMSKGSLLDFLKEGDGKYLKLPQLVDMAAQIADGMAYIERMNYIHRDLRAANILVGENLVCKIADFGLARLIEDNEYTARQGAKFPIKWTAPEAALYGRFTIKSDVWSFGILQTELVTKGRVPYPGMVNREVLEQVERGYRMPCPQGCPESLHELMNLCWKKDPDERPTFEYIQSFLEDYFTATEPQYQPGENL

[4] = target: Mitogen-activated protein kinase 1 (Homo sapiens, UniProt P28482); assay: Inhibition of recombinant full length human MAPK1 using myelin basic protein as substrate incubated for 40 mins in presence of [gamma-33ATP by radiometric scintillation counting analysis
Mitogen-activated protein kinase 1, sequence (P28482 whole entry, the tested form may be a part): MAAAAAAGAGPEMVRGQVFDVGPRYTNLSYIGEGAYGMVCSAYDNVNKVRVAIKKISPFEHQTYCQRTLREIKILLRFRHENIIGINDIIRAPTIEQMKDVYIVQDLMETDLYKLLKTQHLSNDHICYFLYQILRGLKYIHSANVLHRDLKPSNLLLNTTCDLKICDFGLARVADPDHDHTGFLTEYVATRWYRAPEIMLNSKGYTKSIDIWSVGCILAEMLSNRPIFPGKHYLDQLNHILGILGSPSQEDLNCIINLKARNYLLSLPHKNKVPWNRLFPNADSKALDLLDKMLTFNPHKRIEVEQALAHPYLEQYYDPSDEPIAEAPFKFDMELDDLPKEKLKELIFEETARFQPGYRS

[5] = target: Mitogen-activated protein kinase kinase kinase 5 (Homo sapiens, UniProt Q99683); assay: Inhibition of human recombinant ASK1 (649 to 946 residues) using myelin as substrate incubated for 40 mins in presence of [gamma-33ATP] by radiometric scintillation counting analysis
Mitogen-activated protein kinase kinase kinase 5, sequence (Q99683 whole entry, the tested form may be a part): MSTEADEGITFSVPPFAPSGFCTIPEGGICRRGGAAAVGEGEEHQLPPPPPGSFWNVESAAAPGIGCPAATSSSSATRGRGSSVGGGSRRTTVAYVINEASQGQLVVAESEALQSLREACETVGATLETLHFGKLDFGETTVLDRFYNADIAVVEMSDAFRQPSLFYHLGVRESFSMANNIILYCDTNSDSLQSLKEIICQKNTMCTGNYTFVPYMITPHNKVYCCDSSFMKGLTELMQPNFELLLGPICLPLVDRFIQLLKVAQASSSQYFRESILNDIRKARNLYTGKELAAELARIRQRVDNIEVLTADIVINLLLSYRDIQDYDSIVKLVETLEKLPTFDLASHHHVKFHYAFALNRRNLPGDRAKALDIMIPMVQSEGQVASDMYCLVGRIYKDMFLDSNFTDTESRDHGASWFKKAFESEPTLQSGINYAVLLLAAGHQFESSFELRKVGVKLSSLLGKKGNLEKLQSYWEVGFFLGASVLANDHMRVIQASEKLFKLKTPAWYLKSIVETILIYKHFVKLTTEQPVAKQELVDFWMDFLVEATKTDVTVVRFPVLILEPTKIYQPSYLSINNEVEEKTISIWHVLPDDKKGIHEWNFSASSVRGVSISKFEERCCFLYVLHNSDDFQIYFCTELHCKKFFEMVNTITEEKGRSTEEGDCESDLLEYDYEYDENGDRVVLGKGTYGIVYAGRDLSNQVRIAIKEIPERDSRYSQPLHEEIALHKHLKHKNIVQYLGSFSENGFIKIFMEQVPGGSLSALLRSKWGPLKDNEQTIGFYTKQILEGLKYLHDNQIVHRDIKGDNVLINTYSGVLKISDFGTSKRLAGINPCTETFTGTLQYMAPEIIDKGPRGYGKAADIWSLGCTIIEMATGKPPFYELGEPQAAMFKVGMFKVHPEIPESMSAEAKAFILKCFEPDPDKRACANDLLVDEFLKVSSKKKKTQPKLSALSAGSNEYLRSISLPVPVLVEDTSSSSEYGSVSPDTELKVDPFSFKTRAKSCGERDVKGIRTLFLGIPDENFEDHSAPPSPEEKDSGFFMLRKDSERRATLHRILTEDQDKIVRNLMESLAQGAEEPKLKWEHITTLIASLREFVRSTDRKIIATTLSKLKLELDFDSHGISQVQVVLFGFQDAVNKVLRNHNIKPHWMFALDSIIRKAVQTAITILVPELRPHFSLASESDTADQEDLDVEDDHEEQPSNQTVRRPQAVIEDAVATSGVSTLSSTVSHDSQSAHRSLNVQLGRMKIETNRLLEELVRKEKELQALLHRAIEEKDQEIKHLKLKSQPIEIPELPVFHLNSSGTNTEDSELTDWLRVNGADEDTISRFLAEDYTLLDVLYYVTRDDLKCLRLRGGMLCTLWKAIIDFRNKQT

[6] = target: Ribosomal protein S6 kinase alpha-1 (Homo sapiens, UniProt Q15418); assay: Inhibition of recombinant full length human Rsk1 using KKKNRTLSVA as substrate incubated for 40 mins in presence of [gamma33P]ATP by radiometric scintillation counting analysis
Ribosomal protein S6 kinase alpha-1, sequence (Q15418 whole entry): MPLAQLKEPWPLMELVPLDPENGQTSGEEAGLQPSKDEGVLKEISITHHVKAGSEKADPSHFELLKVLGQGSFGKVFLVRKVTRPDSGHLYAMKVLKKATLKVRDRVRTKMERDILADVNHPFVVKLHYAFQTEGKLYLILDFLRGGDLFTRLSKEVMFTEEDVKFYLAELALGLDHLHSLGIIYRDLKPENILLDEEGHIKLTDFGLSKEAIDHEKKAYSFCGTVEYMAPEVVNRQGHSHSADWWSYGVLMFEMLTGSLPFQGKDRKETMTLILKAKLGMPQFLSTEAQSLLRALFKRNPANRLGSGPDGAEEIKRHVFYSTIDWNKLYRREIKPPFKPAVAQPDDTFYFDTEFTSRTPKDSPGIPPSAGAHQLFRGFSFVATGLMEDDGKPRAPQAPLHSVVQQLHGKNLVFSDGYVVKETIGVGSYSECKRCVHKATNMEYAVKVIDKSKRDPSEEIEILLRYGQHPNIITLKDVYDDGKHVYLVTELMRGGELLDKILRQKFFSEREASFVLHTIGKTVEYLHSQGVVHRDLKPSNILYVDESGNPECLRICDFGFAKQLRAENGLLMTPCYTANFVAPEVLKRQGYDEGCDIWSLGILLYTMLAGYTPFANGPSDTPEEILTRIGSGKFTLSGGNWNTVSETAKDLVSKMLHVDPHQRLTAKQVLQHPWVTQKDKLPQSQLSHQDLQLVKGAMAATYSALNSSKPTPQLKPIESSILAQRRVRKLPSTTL

Measured: IC50

CN(C)c1ccc(C(=O)Nc2cccc(NC(=O)COc3ccc4c(=O)ccoc4c3)c2)cc1
> 10 µM: all assays above
